Assay results from PMC5318888, “SAMHD1 enhances nucleoside-analogue efficacy against HIV-1 in myeloid cells” (Scientific Reports, 2017).

Experiments:
[1] = Cytotoxicity, live cells by flow cytometry, THP-1 cells (PMA−/PMA+); type: cell-based; settings: human
Description: (§1) H9, Jurkat and undifferentiated U937 and THP-1 (PMA^−) cells (6 × 10^5 cells/mL) were treated with increasing concentrations of nucleoside analogues (0–200 μM; except CFB, 0–1.6 μM) and incubated at 37 °C in 5% CO2 for 48 h. Medium was then replaced and cells were further incubated for 72 h. Non-dividing U937 and THP-1 (PMA^+) cells (6 × 10^5 cells/mL) were differentiated by addition of 100 nM phorbol-12-myristate-13-acetate (PMA^+) for 48 h and then treated with increasing concentrations of nucleoside analogues as described above. The percentage of live cells was determined by flow cytometry using Live/Dead fixable blue-fluorescent dyes (Invitrogen) and a Fortessa X20 analyser (BD Biosciences). Data were analysed using the FlowJo software suite.
(§2) The cytotoxic concentration of nucleoside analogue that inhibits cell viability by 50% (CC50) and the effective concentration of nucleoside analogue that inhibits infection of cells by 50% (EC50) were calculated for each independent experiment by non-linear regression using GraphPad Prism v6.00 for Windows (GraphPad Software, San Diego, CA). Non-ambiguous values were subjected to a replicate test to calculate confidence intervals of 95% (95% CI). CC50 and EC50 values were determined for at least two independent experiments for each nucleoside analogue and a selectivity index (SI) also calculated, (SI = CC50/EC50). EC50 values for each replicate were used to perform an unpaired two-tailed t-test to determine significant differences between U937 cells expressing SAMHD1 wt or HD206-7AA mutant and THP-1 cells expressing Vpx or untransduced cells. P values of <0.005 were considered statistically significant.

[2] = system: THP-1 cells; experiment: as above; type: cell-based; settings: human, 48 h
Description: as §1, §2

[3] = in vitro; type: cell-based; settings: human
Description: as §1, §2

[4] = Cytotoxicity, live cells by flow cytometry, U937 cells (PMA−/PMA+); type: cell-based; settings: human
Description: as §1, §2

[5] = system: U937 cells; experiment: as above; type: cell-based; settings: human, 48 h
Description: as §1, §2

[6] = system: HIV-1-GFP; experiment: microbe, parasite or virus in culture; type: cell-based
Description: (§3) H9 and Jurkat cells (6 × 10^5 cells/mL) were treated with increasing concentrations of nucleoside analogues (0–200 μM; except CFB, 0–1.6 μM) and incubated for 4 h at 37 °C in 5% CO2. Cells were then infected with HIV-1-GFP by spinoculation at 800 × g for 90 min in the presence of 1 μg/mL polybrene, and further incubated at 37 °C in 5% CO2 for 72 h. Undifferentiated U937 and THP-1 (PMA^−) cells (6 × 10^5 cells/mL) were treated with increasing concentrations of nucleoside analogues (0–200 μM; except CFB, 0–1.6 μM) and incubated at 37 °C in 5% CO2 for 48 h. Cells were then infected with HIV-1-GFP by spinoculation at 800 × g for 90 min in the presence of 1 μg/mL polybrene, and further incubated at 37 °C in 5% CO2 for 72 h. Non-dividing U937 and THP-1 (PMA^+) cells (6 × 10^5 cells/mL) were differentiated by addition of 100 nM PMA (PMA^+) for 48 h and treated with increasing concentrations of nucleoside analogues as described above. Cells were then infected with HIV-1-GFP in the presence of 1 μg/mL polybrene and further incubated at 37 °C in 5% CO2 for 72 h. The percentage of GFP^+cells was determined by one-colour flow cytometry using a Fortessa X20 analyser (BD Biosciences) and the data analysed using the FlowJo software suite.
(§4) Non-ambiguous values were subjected to a replicate test to calculate confidence intervals of 95% (95% CI). CC50 and EC50 values were determined for at least two independent experiments for each nucleoside analogue and a selectivity index (SI) also calculated, (SI = CC50/EC50). EC50 values for each replicate were used to perform an unpaired two-tailed t-test to determine significant differences between U937 cells expressing SAMHD1 wt or HD206-7AA mutant and THP-1 cells expressing Vpx or untransduced cells. P values of <0.005 were considered statistically significant.

[7] = Cytotoxicity, live cells by flow cytometry, Jurkat cells; type: cell-based; settings: human
Description: as §1, §2

[8] = system: HIV-1-GFP; experiment: Anti-HIV-1 activity in U937 cells transduced with wt SAMHD1 or HD206-7AA mutant; type: cell-based
Description: (§5) Antiviral assays were further performed in monocytoid cells transduced with YFP-expressing VLPs containing WT SAMHD1, HD206-7AA or Vpx. Briefly, U937 cells (6 × 10^5 cells/mL) were transduced with WT SAMHD1-YFP or HD206-7AA-YFP VLPs by spinoculation at 800 × g for 90 min in the presence of 1 μg/mL polybrene. Similarly, THP-1 cells (6 × 10^5 cells/mL) were transduced with Vpx-YFP VLPs by spinoculation at 800 × g for 90 min in the presence of 1 μg/mL polybrene. Cells were incubated at 37 °C in 5% CO2 and after 72 h, PMA^+ cells (6 × 10^5 cells/mL) were treated with 100 nM PMA and PMA^− cells (7.5 × 10^4 cells/mL) were left untreated. Cells were then incubated at 37 °C in 5% CO2 for 48 h. Nucleoside analogues were added at increasing concentrations (0–200 μM; except CFB, 0–1.6 μM) and cells were further incubated for 48 h. PMA^− cells were then infected with HIV-1-GFP by spinoculation at 800 × g for 90 min in the presence of 1 μg/mL polybrene, PMA^+ cells were infected with HIV-1-GFP in the presence of 1 μg/mL polybrene only. Cells were incubated for 72 h at 37 °C in 5% CO2 and then analysed by two-colour flow cytometry using a Fortessa X20 analyser (BD Biosciences). Data were analysed using the FlowJo software suite.
as §2

[9] = Cytotoxicity, live cells by flow cytometry, H9 cells; type: cell-based; settings: human
Description: as §1, §2

[10] = system: HIV-1-GFP; experiment: Anti-HIV-1 activity in THP-1 cells with or without Vpx transduction; type: cell-based
Description: as §5, §2

[11] = target: T1, SAMHD1 (Homo sapiens, UniProt Q9Y3Z3); parameters: method as in PMID 25331707; settings: previous in vitro assays; cited from earlier work
T1 construct: The final concentrations were 100 nM SAMHD1(115–626), 10 nM Ppx1; strep-tag; made in house

[12] = system: HIV-1-GFP; experiment: microbe, parasite or virus in culture; type: cell-based; remark: listed apart in the source
Description: as §3, with “Cells” for “H9 and Jurkat cells (6 × 10^5 cells/mL) were treated with increasing concentrations of nucleoside analogues (0–200 μM; except CFB, 0–1.6 μM) and incubated for 4 h at 37 °C in 5% CO2. Cells”, “Undifferentiated U937 and THP-1 (PMA^−) cells (6 × 10^5 cells/mL) were treated with increasing concentrations of nucleoside analogues (0–200 μM; except CFB, 0–1.6 μM) and incubated at 37 °C in 5% CO2 for 48 h.” left out
as §4

[13] = Human immunodeficiency virus 1, THP-1, read-out: EC50 [95% CI], THP1 PMA+
[14] = Human immunodeficiency virus 1, THP-1, read-out: EC50 [95% CI], THP1 PMA−
[15] = Human immunodeficiency virus 1, U-937, read-out: EC50 [95% CI], U937 PMA+
[16] = Human immunodeficiency virus 1, U-937, read-out: EC50 [95% CI], U937 PMA−
[17] = Human immunodeficiency virus 1, U-937, read-out: EC50 [95% CI], U937 PMA+, HD206/7AA+ population
[18] = Human immunodeficiency virus 1, U-937, read-out: EC50 [95% CI], U937 PMA+, SAMHD1+ population
[19] = Human immunodeficiency virus 1, U-937, read-out: EC50 [95% CI], U937 PMA−, HD206/7AA+ population
[20] = Human immunodeficiency virus 1, U-937, read-out: EC50 [95% CI], U937 PMA−, SAMHD1+ population
[21] = Human immunodeficiency virus 1, THP-1, read-out: EC50 [95% CI], THP1 PMA+, Vpx+
[22] = Human immunodeficiency virus 1, THP-1, read-out: EC50 [95% CI], THP1 PMA+, Vpx−
[23] = Human immunodeficiency virus 1, THP-1, read-out: EC50 [95% CI], THP1 PMA−, Vpx+
[24] = Human immunodeficiency virus 1, THP-1, read-out: EC50 [95% CI], THP1 PMA−, Vpx−

T1 sequence (Q9Y3Z3 115-626): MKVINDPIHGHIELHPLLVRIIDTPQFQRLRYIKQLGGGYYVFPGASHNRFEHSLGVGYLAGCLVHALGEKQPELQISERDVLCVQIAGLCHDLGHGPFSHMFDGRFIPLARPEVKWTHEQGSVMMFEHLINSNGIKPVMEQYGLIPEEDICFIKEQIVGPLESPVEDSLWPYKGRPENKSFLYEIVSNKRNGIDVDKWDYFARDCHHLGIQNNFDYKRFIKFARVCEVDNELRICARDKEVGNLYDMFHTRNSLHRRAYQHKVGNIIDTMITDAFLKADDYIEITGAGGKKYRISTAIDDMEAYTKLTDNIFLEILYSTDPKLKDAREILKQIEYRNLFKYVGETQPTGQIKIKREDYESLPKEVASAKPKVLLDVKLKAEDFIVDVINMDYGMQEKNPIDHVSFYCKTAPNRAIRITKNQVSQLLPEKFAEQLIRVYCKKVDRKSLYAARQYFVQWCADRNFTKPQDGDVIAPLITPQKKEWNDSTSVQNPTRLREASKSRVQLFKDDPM

Structure (SMILES) | CC50 [2] | CC50 at 48 h [3] | CC50 [5] | EC50 [6, 13] | EC50 [6, 14] | EC50 [6, 15] | EC50 [6, 16] | fold increase of anti-HIV-1 activity in PMA+ over PMA− cells ([6]; THP-1) | SI, selectivity index CC50/EC50 ([6]; THP-1 PMA+) | CC50 at 48 h [7] | EC50 [8, 17] | EC50 [8, 18] | EC50 [8, 19] | EC50 [8, 20] | CC50 at 48 h [9] | EC50 [10, 21] | EC50 [10, 22] | EC50 [10, 23] | EC50 [10, 24] | hydrolysis by SAMHD1 (substrate) [11] | other results
Nc1nc(NC2CC2)c2ncn([C@H]3C=C[C@@H](CO)C3)c2n1 [ABC] | > 200000 nM | > 200000 nM | > 200000 nM | 31 nM | 493 nM | 7470 nM | 14100 nM | 16 fold | > 6452 | > 200000 nM | 7060 nM | 173 nM | 22100 nM | 17500 nM | > 200000 nM | 7050 nM | 38 nM | 622 nM | 459 nM | – | CC50 at 48 h [1]: > 200000 nM; CC50 at 48 h [4]: > 200000 nM; SI, selectivity index CC50/EC50 ([6]; THP-1 PMA−): > 406; SI, selectivity index CC50/EC50 ([6]; U937 PMA+): > 27; SI, selectivity index CC50/EC50 ([6]; U937 PMA−): > 14; Fold (EC50 HD206/7AA vs SAMHD1) ([8]; U937 PMA+): 41 fold; Fold (EC50 HD206/7AA vs SAMHD1) ([8]; U937 PMA−): 1 fold; Fold (EC50 Vpx+ vs Vpx−) ([10]; THP1 PMA+): 187 fold; Fold (EC50 Vpx+ vs Vpx−) ([10]; THP1 PMA−): 1 fold
Nc1nc2c(ncn2COCCOP(=O)(O)OP(=O)(O)OP(=O)(O)O)c(=O)[nH]1 [ACV-TP, Aciclovir triphosphate] | – | – | – | – | – | – | – | – | – | – | – | – | – | – | – | – | – | – | – | non-hydrolysable | allosteric activation of SAMHD1 [11]: allosteric activator of SAMHD1 with comparable efficiency to GTP
Nc1nc(Cl)nc2c1ncn2[C@@H]1O[C@H](CO)[C@@H](O)[C@@H]1F [CFB, 2-chloro-9-(2′-Deoxy-2′-fluoro-beta-D-arabinofuranosyl)adenine] | – | – | – | 3 nM | 132 nM | 37 nM | 119 nM | 44 fold | > 533 | 49 nM | 29 nM | 1.3 nM | 108 nM | 138 nM | 31 nM | 12 nM | 3 nM | > 1600 nM | 340 nM | – | SI, selectivity index CC50/EC50 ([6]; THP-1 PMA−): < 1; fold increase of anti-HIV-1 activity in PMA+ over PMA− cells ([6]; U937): 3 fold; SI, selectivity index CC50/EC50 ([6]; U937 PMA+): > 43; SI, selectivity index CC50/EC50 ([6]; U937 PMA−): < 1; SI, selectivity index CC50/EC50 ([12]; H9 cells): < 1; EC50 ([12]; Human immunodeficiency virus 1, H9, read-out: EC50 anti-HIV-1, H9 cells): 94 nM; EC50 ([12]; Human immunodeficiency virus 1, Jurkat, read-out: EC50 anti-HIV-1, Jurkat cells): 663 nM; SI, selectivity index CC50/EC50 ([12]; Jurkat cells): < 1; Fold (EC50 HD206/7AA vs SAMHD1) ([8]; U937 PMA+): 22 fold; Fold (EC50 HD206/7AA vs SAMHD1) ([8]; U937 PMA−): 1 fold; Fold (EC50 Vpx+ vs Vpx−) ([10]; THP1 PMA+): 4 fold; Fold (EC50 Vpx+ vs Vpx−) ([10]; THP1 PMA−): >5 fold
Nc1nc(Cl)nc2c1ncn2[C@@H]1O[C@H](COP(=O)(O)OP(=O)(O)OP(=O)(O)O)[C@@H](O)[C@@H]1F [CFB-TP, Clofarabine triphosphate] | – | – | – | – | – | – | – | – | – | – | – | – | – | – | – | – | – | – | – | substrate hydrolysed by SAMHD1 at a rate comparable to natural dNTP substrates | –
Nc1nc(O)c2ncn(COC(CO)COP(=O)(O)OP(=O)(O)OP(=O)(O)O)c2n1 (centres unmarked) [GCV-TP, Ganciclovir triphosphate] | – | – | – | – | – | – | – | – | – | – | – | – | – | – | – | – | – | – | – | non-hydrolysable | allosteric activation of SAMHD1 [11]: displayed no activation of SAMHD1
O=c1[nH]cnc2c1ncn2[C@H]1CC[C@@H](CO)O1 [ddI, 2′,3′-dideoxyinosine] | > 200000 nM | > 200000 nM | > 200000 nM | 93 nM | 2030 nM | 2450 nM | 45800 nM | – | – | > 200000 nM | 8790 nM | 109 nM | 55100 nM | 23700 nM | > 200000 nM | 4340 nM | 79 nM | 2730 nM | 1040 nM | – | CC50 at 48 h ([1]; CC50): > 200000 nM; CC50 at 48 h ([4]; CC50): > 200000 nM
